This note sets out measurements from US9278942B2, “Non-steroidal compounds as androgen receptor modulators” (FLX Discoveries Oy, priority 2011, dated 2016).

Broadly, the inhibition is the share of the control response that was lost under treatment.

Molecules are shown by their SMILES. Like-named read-outs stand apart in the source and are kept apart here.

In experiment [1] the target is T1, human AR (Homo sapiens, UniProt P10275).
T1 construct: expressed in transfected cells; host or cells: COS-1
T1 sequence (P10275 1-920): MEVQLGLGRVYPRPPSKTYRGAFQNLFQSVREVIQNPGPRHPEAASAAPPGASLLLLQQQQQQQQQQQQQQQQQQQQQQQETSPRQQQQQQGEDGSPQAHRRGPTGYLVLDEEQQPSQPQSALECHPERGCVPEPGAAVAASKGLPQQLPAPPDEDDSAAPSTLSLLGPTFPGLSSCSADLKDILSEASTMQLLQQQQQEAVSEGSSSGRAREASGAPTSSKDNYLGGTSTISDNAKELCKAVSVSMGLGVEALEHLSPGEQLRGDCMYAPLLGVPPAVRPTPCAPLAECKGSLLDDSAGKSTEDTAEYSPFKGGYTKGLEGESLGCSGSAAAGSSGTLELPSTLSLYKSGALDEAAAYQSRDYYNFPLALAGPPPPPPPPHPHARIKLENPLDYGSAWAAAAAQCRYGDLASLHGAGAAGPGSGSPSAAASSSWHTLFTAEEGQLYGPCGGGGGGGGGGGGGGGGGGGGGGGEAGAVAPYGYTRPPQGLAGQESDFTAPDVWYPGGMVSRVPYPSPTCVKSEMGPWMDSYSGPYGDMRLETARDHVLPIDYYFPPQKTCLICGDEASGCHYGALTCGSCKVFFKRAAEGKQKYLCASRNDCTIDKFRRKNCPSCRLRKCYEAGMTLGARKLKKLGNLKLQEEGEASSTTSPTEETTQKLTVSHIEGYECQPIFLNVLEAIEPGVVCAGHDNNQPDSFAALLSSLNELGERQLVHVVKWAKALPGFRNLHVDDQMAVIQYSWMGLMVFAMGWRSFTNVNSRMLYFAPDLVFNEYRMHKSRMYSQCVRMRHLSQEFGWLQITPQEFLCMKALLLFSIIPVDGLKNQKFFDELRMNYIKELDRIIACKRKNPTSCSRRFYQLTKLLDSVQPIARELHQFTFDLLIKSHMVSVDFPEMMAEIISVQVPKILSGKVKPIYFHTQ
The experiment can be described thus: AR antagonism assay: inhibition of transcriptional activation of AR (Probasin-luc reporter, COS-1 cells). The format is cell-based. Particulars: compound 10.0 μM, relative luciferase response: 100% for testosterone (no antiandrogenic effect), 0% for complete antagonism; for remaining activity at 10 µM: COS-1, 18 h, read-out: AR antagonism against 100 nM testosterone ± S.D. As to the method:
Determination of the Antiandrogen Activity.
Testosterone was bought from Sigma Chemical Co. (St. Louis, Mo.) and hydroxyflutamide from Chemos GmbH. One day before transfection, COS-1 cells (from ATCC) were seeded into 1 ml of DMEM (Dulbecco's modified Eagle medium, Gibco) with 10% dextran-charcoal-treated fetal bovine serum and 0.25% (vol/vol) Penicillin-Streptomycin (Euroclone) at a density of 70×10^3 cells/well. After medium change to DMEM 2.5% FBS, the cells were transfected for 24 hours with 10 ng/well of human AR expression vector pSG5-hAR, 100 ng/well of reporter plasmid Probasin-luc, and 10 ng/well of control plasmid pCMV-β-gal by using the TransIT method (Micrus Bio TransIT LT1, Transfection Reagent). After the transfection, the cells received treatment of test compounds giving final concentration of 10 μM for each compound. In the antagonist test the wells were also treated with 100 nM final concentration of testosterone. After 18 hours, the cells were washed, lysed and assayed for luciferase and normalization for β-galactosidase activities and protein concentrations. The cells were washed with 100 μl of cold phosphate buffered saline (PBS) and lysed with 35 μl 1× Reporter lysis Buffer (Promega) and frozen (−70° C.) for 30 minutes. Cell lysates were placed in 1.5-ml propylene tubes and centrifuged at 13200×g for 5 minutes at room temperature. For β-galactosidase assay 10 μl of supernatant from each cell extract was transferred to a 96-well plate (96 well Elisa Microplates, PS, Microcon) and incubated for 10 minutes at 37° C. with 65 μl of reaction mixture consisting 0.76 μl 100×Mg-buffer, 12.5 μl ONPG (4 mg/ml), and 54.3 μl of sodium-phosphate buffer (pH 7). The reaction was stopped with treatment of 125 μl Na2CO3. For luciferase assay 10 μl of the supernatant was transferred to a 96-well plate (Greiner Microlon lumitrac 200) and treated with 30 μl of luciferase assay substrate solution (Promega Luciferase Assay System E1501). For the study of protein concentrations 5 μl of the supernatant was transferred to a 96-well plate (Elisa Microplates, PS, Microcon) and mixed with 200 μl of Bio-rad protein assay reagent. The luciferase activities were measured with Thermo Luminoscan Ascent scanner and the protein concentrations and β-galactosidase activities with Thermo Labsystem Multiscan Ex scanner. Also blank and control samples were measured. During the maintenance, transfection, and treatment with tested compounds the cells were incubated in humidified atmosphere with 5% carbon dioxide at 37° C.

Experiment [2] has as its target T1, human AR. The experiment can be described thus: Competitive AR binding assay against [3H]-R1881 in transiently transfected COS-1 cells. Particulars: compound 13.4 μM, [3H]-R1881 1.34 nM, complete inhibition equals 100%; for inhibition at 13.4 µM: read-out: Inhibition of [3H]-R1881 binding at 1.34 nM ± S.D. As to the method: Competitive AR Binding Assay.
AR binding was measured by a competitive assay against [^3H]-R1881 (PerkinElmer) in transiently transfected COS-1 cells. One day before transfection, COS-1 cells were seeded into 2 ml of DMEM (Dulbecco's modified Eagle medium, Gipco) with 10% dextran-charcoal-treated fetal bovine serum and 0.25% (vol/vol) Penicillin-Streptomysin (Euroclone) at a density of 140×10^3 cells/well. After medium change to DMEM 2.5% FBS, the cells were transfected for 24 hours with 10 ng/well of human AR expression vector pSG5 hAR by using the TransIT method (Micrus Bio TransIT LT1, Transfection Reagent). After 36 hours, the cells where treated with tested compounds using 10000 fold molarities compared to labelled R1881 (1.34 nM). After 2 hours of incubation at 37° C., the medium was removed. The cells were removed from the wells to 150 μl of 1× phosphate buffered saline (PBS), transferred to Eppendorf tubes and centrifuged at 4° C. using 4000×g for 5 min, and then washed twice with 150 μl of PBS. The cell pellets were dissolved to 50 μl of 0.5M NaOH and incubated for 15 min at 56° C., after which the samples (three replicates for each sample compound) were transferred to liquid twinkle tubes with 3 ml of OptiPhase HiSafe 3 twinkle solution (PerkinElmer) and radioactivity of AR-bound [^3H]-R1881 determined. The results were measured with LKB WALLAC 1214 racbeta equipment. The ability of test compounds to bind AR is reported as reduction in bound radioactivity obtained with 1.34 nM [^3H]-R1881.
The results (% inhibition) were calculated as: % inhibition=100−[100×(averagecompound/average[3H]-R1881)].

For the compound `N#Cc1cccc(C2=NOC3CCCCC23)c1C(F)(F)F` (single isomer, unassigned) [Example 94a, 3-(3a,4,5,6,7,7a-Hexahydro-benzo[d]isoxazol-3-yl)-2-trifluoromethyl-benzonitrile], the “AR antagonism against 100 nM testosterone ± S.D.” value (from here on “AR antagonism”) in experiment [1] worked out at 17.8 ± 3.9%. For the same compound, the inhibition at 13.4 µM in experiment [2] (Table 3) came to 97.4 ± 0.4%.

Regarding `O=[N+]([O-])c1ccc(C2=NOC3CCCC23)cc1C(F)(F)F` (single isomer, unassigned) [Example 21a, 3-(4-Nitro-3-trifluoromethyl-phenyl)-4,5,6,6a-tetrahydro-3aH-cyclopenta[d]isoxazole], the remaining activity at 10 µM in experiment [1] came to 19.2 ± 6.8%. In addition, the “Inhibition of [3H]-R1881 binding at 1.34 nM ± S.D.” value (“Inhibition of [3H]-R1881 binding” below) in experiment [2] (Table 3) is given as 69.7 ± 4.5%.

On to `Clc1ccc(C2=NOC3CCCCC23)cc1` (single isomer, unassigned) [Example 32b, 3-(4-Chloro-phenyl)-3a,4,5,6,7,7a-hexahydro-benzo[d]-isoxazole], for which the “AR antagonism” value in experiment [1] was 91.4 ± 7.7%. Also, the “Inhibition of [3H]-R1881 binding” value in experiment [2] (Table 1) amounted to 0%.

`O=[N+]([O-])c1ccc(C2=NOC3CCCCC23)c(C(F)(F)F)c1` (single isomer, unassigned) [Example 38b, 3-(4-Nitro-2-trifluoromethyl-phenyl)-3a,4,5,6,7,7a-hexahydro-benzo-[d]-isoxazole]: the “AR antagonism” value in experiment [1] amounted to 75.9 ± 3.7%. For the same compound, the “Inhibition of [3H]-R1881 binding” value in experiment [2] (Table 1) worked out at 90.7 ± 0.5%.

For the compound `N#Cc1ccc(C2=NOC3CCCCCCC23)c(C(F)(F)F)c1` (single isomer, unassigned) [Example 93a, 4-(3a,4,5,6,7,8,9,9a-Octahydro-cycloocta[d]isoxazol-3-yl)-3-trifluoromethyl-benzonitrile], in experiment [1], the “AR antagonism” value came to 9.4 ± 0.3%. For the same compound, the inhibition at 13.4 µM in experiment [2] (Table 3) was 87.2 ± 2.9%.

`O=[N+]([O-])c1ccc(C2=NOC3CCCC23)c(C(F)(F)F)c1` (centres unmarked) [Example 22ab, 3-(4-Nitro-2-trifluoromethyl-phenyl)-4,5,6,6a-tetrahydro-3aH-cyclopenta[d]isoxazole]: the remaining activity at 10 µM in experiment [1] was found to be 21.8 ± 4.1%. The inhibition at 13.4 µM in experiment [2] (Table 3) was determined as 89.3 ± 4.7%.

Regarding `N#Cc1ccc(C2=NOC3CCCC23)cc1C(F)(F)F` (single isomer, unassigned) [Example 85b, 4-(4,5,6,6a-Tetrahydro-3aH-cyclopenta[d]isoxazol-3-yl)-2-trifluoromethyl-benzonitrile], the “AR antagonism” value in experiment [1] is recorded as 18.9 ± 0.5%. Besides, the “Inhibition of [3H]-R1881 binding” value in experiment [2] (Table 2) was 91.8 ± 1.7%.

On to `Fc1ccc(C2=NOC3CCCCC23)c(C(F)(F)F)c1` (centres unmarked) [Example 36a, 3-(4-Fluoro-2-trifluoromethyl-phenyl)-3a,4,5,6,7,7a-hexahydro-benzo[d]-isoxazole], for which, in experiment [1], the remaining activity at 10 µM stood at 49.7 ± 5.1%. In experiment [2] (Table 2), the inhibition at 13.4 µM was 84.6 ± 0.7%.

As to `N#Cc1ccc(C2=NOC3CCCC23)c(C(F)(F)F)c1` (centres unmarked) [Example 86ab, 4-(4,5,6,6a-Tetrahydro-3aH-cyclopenta[d]isoxazol-3-yl)-3-trifluoromethyl-benzonitrile], in experiment [1], the remaining activity at 10 µM is 29.3 ± 3.7%. For the same compound, the inhibition at 13.4 µM in experiment [2] (Table 3) is 91.7 ± 1.7%.

Regarding `Fc1ccc(C2=NOC3CCCCCCC23)cc1C(F)(F)F` (centres unmarked) [Example 43a, 3-(4-Fluoro-3-trifluoromethyl-phenyl)-3a,4,5,6,7,8,9,9a-octahydro-cycloocta[d]isoxazole], in experiment [1], the remaining activity at 10 µM worked out at 57.7 ± 9.9%. The “Inhibition of [3H]-R1881 binding” value in experiment [2] (Table 2) is 66.3 ± 9.8%.

Consider `N#Cc1ccc(C2=NOC3CCCCCC23)c(C(F)(F)F)c1` (centres unmarked) [Example 91a, 4-(4,5,6,7,8,8a-Hexahydro-3aH-cyclohepta[d]isoxazol-3-yl)-3-trifluoromethyl benzonitrile], for which the remaining activity at 10 µM in experiment [1] was determined as 29.8 ± 3.6%. In addition, in experiment [2] (Table 2), the inhibition at 13.4 µM came to 85.4 ± 1.5%.

As for `N#Cc1cccc(C2=NOC3CCCCC23)c1C(F)(F)F` (single isomer, unassigned) [Example 94b, 3-(3a,4,5,6,7,7a-Hexahydro-benzo[d]isoxazol-3-yl)-2-trifluoromethyl-benzonitrile], the “AR antagonism” value in experiment [1] was determined as 5.4 ± 1.7%. Also, the “Inhibition of [3H]-R1881 binding” value in experiment [2] (Table 3) worked out at 97.6 ± 0.2%.

Regarding `Fc1ccc(C2=NOC3CCCC23)cc1C(F)(F)F` (centres unmarked) [Example 19ab, 3-(4-Fluoro-3-trifluoromethyl-phenyl)-4,5,6,6a-tetrahydro-3aH-cyclopenta[d]-isoxazole], the remaining activity at 10 µM in experiment [1] was 54.6 ± 2.3%. In addition, the inhibition at 13.4 µM in experiment [2] (Table 2) was found to be 84.6 ± 4.9%.

For `N#Cc1ccc(C2=NOC3CCCCC23)c(C(F)(F)F)c1` (centres unmarked) [Example 89a, 4-(3a,4,5,6,7,7a-Hexahydro-benzo[d]isoxazol-3-yl)-3-trifluoromethyl benzonitrile], in experiment [1], the remaining activity at 10 µM came to 27.5 ± 4.1%. In addition, the inhibition at 13.4 µM in experiment [2] (Table 2) stood at 78.8 ± 0.6%.

In the case of `O=[N+]([O-])c1ccc(C2=NOC3CCCCCC23)cc1C(F)(F)F` (centres unmarked) [Example 41ab, 3-(4-Nitro-3-trifluoromethyl-phenyl)-4,5,6,7,8,8a-hexahydro-3aH-cyclohepta[d]isoxazole], in experiment [1], the remaining activity at 10 µM worked out at 10.1 ± 0.9%. The inhibition at 13.4 µM in experiment [2] (Table 2) was 97.8 ± 0.5%.

With `Fc1ccc(C2=NOC3CCCCCCC23)c(C(F)(F)F)c1` (centres unmarked) [Example 44a, 3-(4-Fluoro-2-trifluoromethyl-phenyl)-3a,4,5,6,7,8,9,9a-octahydro-cycloocta[d]isoxazole], the remaining activity at 10 µM in experiment [1] stood at 19.8 ± 0.5%. In experiment [2] (Table 3), the inhibition at 13.4 µM worked out at 90.3 ± 2.7%.
